Data from patent publication US9221795B2, “Phosphatidylinositol 3-kinase inhibitors” (Gilead Sciences, Inc., priority 2013, dated 2015).

Legend:
[1] = molecular target: PI3Kδ (Homo sapiens (Human), UniProt O00329); assay: Enzymatic activity of PI3K isoforms, TR-FRET assay (PI3Kδ); format: biochemical; conditions: 2× Km ATP, geometric mean if more than one value
Summary of the method: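 Recombinant heterodimeric PI3Kβ or PI3Kδ (25-50 pM) was run with 2 μM PIP2 and 2× Km ATP (75-500 μM) at pH 7.4, for 30 min at 25° C. PIP3 formation was detected by TR-FRET displacement of labeled PIP3 from Eu-GRP-1. IC50 values in nM come from four-parameter fits, as geometric means.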

[2] = system: basophils; assay: Basophil activation in human whole blood (Flow2 CAST kit, CD63 flow cytometry); format: cell-based
Protocol: Effect on basophil activation was measured in human whole blood using the Flow2 CAST® kit (Buhlmann Laboratories AG, Baselstrasse, Switzerland) following the protocol provided by the manufacturer with minor modifications. Human whole blood was collected into K2-EDTA venipuncture tubes. Whole blood samples were treated with either DMSO (0.3% final) or a serial dilution of compounds in DMSO for 60 minutes at 37° C. Basophils were then activated either with anti-FcεRI mAb or with fMLP. To activate basophils using the anti-FcεRI mAb; 50 μL of whole blood was mixed with 110 μL of stimulation buffer (B-BAT-STB) and 20 μl of anti-FcεRI (B-BAT-STCON). To activate basophils with fMLP; 50 μL of whole blood was mixed with 80 μL of stimulation buffer (B-BAT-STB) and 50 μL of fMLP (B-CCR-FMLP). Stimulation buffer was used as a negative control. 20 μL of the staining reagent (combination of anti-human CD63-FITC and anti-human CCR3-PE mAbs) was then added to each tube. The tubes were mixed gently and incubated for 25 minutes at 37° C. Subsequently, erythrocytes were lysed and fixed by the addition of 2 mL of lysing solution (B-BAT-LYR) for 10 minutes at room temperature. Cells were pelleted by centrifugation at 1200 rpm for 10 minutes at room temperature in a swing-out rotor. Supernatant was aspirated and cell pellet resuspended in 400 μL of wash buffer. Flow cytometric analysis of the basophil activation was performed on a FC500MPL flow cytometer (Beckman Coulter Inc., Fullerton, Calif.). CCR3-staining and side scatter were applied to gate at least 200 basophils that expressed a high density of CCR3. The percent CD63 positive cells within the gated basophil population were determined in different treatment groups and normalized to the vehicle control (0.3% DMSO) with anti-FcεRI mAb of fMLP stimulus as 100%. Final compound concentration was adjusted to correct for dilution effect of added reagents. The EC50 values were calculated from the analysis of the dose-response curves to a four-parameter equation.

[3] = Hepatocyte stability (parent drug disappearance in cryopreserved hepatocytes); format: in vitro ADME, human; conditions: human, cryopreserved human hepatocytes, human hepatocytes
Protocol: This assay was used to evaluate the metabolic stability of test articles (TA) following incubation in cryopreserved hepatocytes by monitoring parent drug disappearance via LC/MC. The TA was incubated with 1 million hepatocytes/mL at 2 μM substrate in duplicate. The incubation was carried out at 37° C. with 5% CO2 and saturating humidity. Samples were taken at 0, 1, 2, and 4 hours to monitor the disappearance of TA and a half-life (t1/2) was determined. Table 3 below summarizes the human hepatocyte t1/2 values (hours) collected in the Example.

[4] = Homo sapiens, class symbol, human whole blood, basophils activated with anti-FcεRI mAb or fMLP, percent CD63 positive cells
[5] = Homo sapiens, human whole blood, basophils activated with anti-FcεRI mAb or fMLP, percent CD63 positive cells, geometric mean
[6] = class symbol, 2 μM substrate, 37° C.
[7] = 2 μM substrate, 37° C., Table 3

Chain of PI3Kδ (O00329 whole entry, canonical isoform): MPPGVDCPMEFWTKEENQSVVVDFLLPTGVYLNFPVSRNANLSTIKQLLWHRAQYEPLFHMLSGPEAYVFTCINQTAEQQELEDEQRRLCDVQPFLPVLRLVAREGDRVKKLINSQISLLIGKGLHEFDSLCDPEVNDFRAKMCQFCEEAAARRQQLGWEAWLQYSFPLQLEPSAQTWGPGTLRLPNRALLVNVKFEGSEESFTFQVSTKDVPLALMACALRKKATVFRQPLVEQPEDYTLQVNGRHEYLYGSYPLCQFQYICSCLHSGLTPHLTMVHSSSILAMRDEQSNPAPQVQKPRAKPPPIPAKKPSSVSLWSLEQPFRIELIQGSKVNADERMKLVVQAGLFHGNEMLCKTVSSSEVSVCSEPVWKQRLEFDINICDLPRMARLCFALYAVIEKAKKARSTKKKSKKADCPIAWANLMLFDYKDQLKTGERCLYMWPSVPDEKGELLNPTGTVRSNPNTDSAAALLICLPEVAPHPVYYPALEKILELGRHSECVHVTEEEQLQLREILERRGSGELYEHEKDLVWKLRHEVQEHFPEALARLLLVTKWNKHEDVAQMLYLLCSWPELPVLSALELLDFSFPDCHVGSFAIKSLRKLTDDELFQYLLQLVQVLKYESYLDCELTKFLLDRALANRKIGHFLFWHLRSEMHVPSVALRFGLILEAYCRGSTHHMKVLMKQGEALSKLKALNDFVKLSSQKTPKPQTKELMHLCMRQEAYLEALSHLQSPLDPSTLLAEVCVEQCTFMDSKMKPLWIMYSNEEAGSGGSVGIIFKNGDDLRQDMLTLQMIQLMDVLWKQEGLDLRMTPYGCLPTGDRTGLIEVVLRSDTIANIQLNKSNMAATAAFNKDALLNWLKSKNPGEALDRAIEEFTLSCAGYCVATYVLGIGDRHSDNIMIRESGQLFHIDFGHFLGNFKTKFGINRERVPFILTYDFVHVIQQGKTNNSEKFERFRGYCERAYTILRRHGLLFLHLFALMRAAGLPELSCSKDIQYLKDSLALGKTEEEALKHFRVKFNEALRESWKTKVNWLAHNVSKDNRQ
Chain of PI3Kδ (P27986 whole entry partner, canonical isoform): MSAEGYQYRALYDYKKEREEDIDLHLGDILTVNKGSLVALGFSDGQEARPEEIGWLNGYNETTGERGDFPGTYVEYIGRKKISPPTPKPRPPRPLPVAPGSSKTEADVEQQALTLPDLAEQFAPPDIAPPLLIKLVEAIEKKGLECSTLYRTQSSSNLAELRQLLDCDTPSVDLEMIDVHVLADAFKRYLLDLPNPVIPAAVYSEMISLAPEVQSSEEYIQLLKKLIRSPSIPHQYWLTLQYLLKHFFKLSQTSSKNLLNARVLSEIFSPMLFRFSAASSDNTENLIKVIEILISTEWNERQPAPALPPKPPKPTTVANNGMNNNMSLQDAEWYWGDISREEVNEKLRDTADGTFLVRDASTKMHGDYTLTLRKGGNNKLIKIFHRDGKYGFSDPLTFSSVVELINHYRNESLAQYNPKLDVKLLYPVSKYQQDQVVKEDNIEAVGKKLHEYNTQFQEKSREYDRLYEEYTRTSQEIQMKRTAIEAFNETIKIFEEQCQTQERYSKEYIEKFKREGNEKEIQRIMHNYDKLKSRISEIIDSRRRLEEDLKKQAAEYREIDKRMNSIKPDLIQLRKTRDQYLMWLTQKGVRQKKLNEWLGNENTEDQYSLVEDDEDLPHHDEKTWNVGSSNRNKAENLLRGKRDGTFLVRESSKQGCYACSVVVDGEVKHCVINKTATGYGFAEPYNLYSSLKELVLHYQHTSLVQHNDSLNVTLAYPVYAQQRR

## N#Cc1c(N)nc(N)nc1N[C@H](c1nc2cccc(Cl)c2c(=O)n1-c1cccnc1)C1CC1 [Compound 3, (S)-2,4-diamino-6-((5-chloro-4-oxo-3-(pyridin-3-yl)-3,4-dihydroquinazolin-2-yl)(cyclopropyl)methylamino)pyrimidine-5-carbonitrile]
[1]
  IC50: 0.6 nM
[2]; [4]
  EC50: 1 to 10 nM
[2]; [5]
  EC50: 2 nM
[3]; [6]
  half-life at 2 μM: > 10 h
[3]; [7]
  half-life at 2 μM: > 10 h

## N#Cc1c(N)nc(N)nc1N[C@@H](CC1CC1)c1nc2c(F)ccc(Cl)c2c(=O)n1-c1cccnc1 [Compound 29, (S)-2,4-diamino-6-(1-(5-chloro-8-fluoro-4-oxo-3-(pyridin-3-yl)-3,4-dihydroquinazolin-2-yl)-2-cyclopropylethylamino)pyrimidine-5-carbonitrile]
[1]
  IC50: 8 nM
[2]; [4]
  EC50: 10 to 50 nM
[2]; [5]
  EC50: 10 nM
[3]; [6]
  half-life at 2 μM: > 10 h
[3]; [7]
  half-life at 2 μM: > 10 h

## C[C@H](Nc1nc(N)nc(N)c1C#N)c1nc2cccc(Cl)c2c(=O)n1-c1cncc(C2CC2)c1 [Compound 19, (S)-2,4-diamino-6-(1-(5-chloro-3-(5-cyclopropylpyridin-3-yl)-4-oxo-3,4-dihydroquinazolin-2-yl)ethylamino)pyrimidine-5-carbonitrile]
[1]
  IC50: 5 nM
[2]; [4]
  EC50: 1 to 10 nM
[2]; [5]
  EC50: 7 nM
[3]; [6]
  half-life at 2 μM: 6 to 10 h
[3]; [7]
  half-life at 2 μM: 7 h

## C[C@H](Nc1nc(N)nc(N)c1C#N)c1nc2c(Cl)ccc(Cl)c2c(=O)n1-c1cccnc1 [Compound 23, (S)-2,4-diamino-6-(1-(5,8-dichloro-4-oxo-3-(pyridin-3-yl)-3,4-dihydroquinazolin-2-yl)ethylamino)pyrimidine-5-carbonitrile]
[1]
  IC50: 0.7 nM
[2]; [4]
  EC50: < 1 nM
[2]; [5]
  EC50: 0.8 nM
[3]; [6]
  half-life at 2 μM: > 10 h
[3]; [7]
  half-life at 2 μM: > 10 h

## C[C@H](Nc1nc(N)nc(N)c1C#N)c1nc2c(F)ccc(Cl)c2c(=O)n1-c1cncc(F)c1 [Compound 31, (S)-2,4-diamino-6-(1-(5-chloro-8-fluoro-3-(5-fluoropyridin-3-yl)-4-oxo-3,4-dihydroquinazolin-2-yl)ethylamino)pyrimidine-5-carbonitrile]
[1]
  IC50: 1 nM
[2]; [4]
  EC50: < 1 nM
[2]; [5]
  EC50: 0.5 nM
[3]; [6]
  half-life at 2 μM: > 10 h
[3]; [7]
  half-life at 2 μM: > 10 h

## N#Cc1c(N)nc(N)nc1N[C@H](c1nc2c(F)ccc(Cl)c2c(=O)n1-c1cncc(F)c1)C1CC1 [Compound 33, (S)-2,4-diamino-6-((5-chloro-8-fluoro-3-(5-fluoropyridin-3-yl)-4-oxo-3,4-dihydroquinazolin-2-yl)(cyclopropyl)methylamino)pyrimidine-5-carbonitrile]
[1]
  IC50: 2 nM
[2]; [4]
  EC50: 1 to 10 nM
[2]; [5]
  EC50: 5 nM
[3]; [6]
  half-life at 2 μM: > 10 h
[3]; [7]
  half-life at 2 μM: > 10 h

## Cc1cncc(-n2c([C@H](C)Nc3nc(N)nc(N)c3C#N)nc3c(F)ccc(Cl)c3c2=O)c1 [Compound 32, (S)-2,4-diamino-6-(1-(5-chloro-8-fluoro-3-(5-methylpyridin-3-yl)-4-oxo-3,4-dihydroquinazolin-2-yl)ethylamino)pyrimidine-5-carbonitrile]
[1]
  IC50: 2 nM
[2]; [4]
  EC50: < 1 nM
[2]; [5]
  EC50: 0.4 nM
[3]; [6]
  half-life at 2 μM: > 10 h
[3]; [7]
  half-life at 2 μM: > 10 h

## C[C@H](Nc1nc(N)nc(N)c1C#N)c1nc2cccc(Cl)c2c(=O)n1-c1cccnc1 [Compound 1, (S)-2,4-diamino-6-((1-(5-chloro-4-oxo-3-(pyridin-3-yl)-3,4-dihydroquinazolin-2-yl)ethyl)amino)pyrimidine-5-carbonitrile]
[1]
  IC50: 0.6 nM
[2]; Homo sapiens, basophil activation in human whole blood, comparison Table 4
  EC50: < 1 nM
[2]; [4]
  EC50: < 1 nM
[2]; [5]
  EC50: 0.9 nM
[3]; [6]
  half-life at 2 μM: > 10 h
[3]; [7]
  half-life at 2 μM: > 10 h
[3]; comparison Table 4
  half-life at 2 μM: > 10 h

## N#Cc1c(N)nc(N)nc1N[C@H](c1nc2c(F)ccc(Cl)c2c(=O)n1-c1cccnc1)C1CC1 [Compound 27, (S)-2,4-diamino-6-((5-chloro-8-fluoro-4-oxo-3-(pyridin-3-yl)-3,4-dihydroquinazolin-2-yl)(cyclopropyl)methylamino)pyrimidine-5-carbonitrile]
[1]
  IC50: 1 nM
[2]; [4]
  EC50: < 1 nM
[2]; [5]
  EC50: 0.7 nM
[3]; [6]
  half-life at 2 μM: > 10 h
[3]; [7]
  half-life at 2 μM: > 10 h

## C[C@H](Nc1nc(N)nc(N)c1C#N)c1nc2cccc(Cl)c2c(=O)n1-c1cncc(F)c1 [Compound 12, (S)-2,4-diamino-6-(1-(5-chloro-3-(5-fluoropyridin-3-yl)-4-oxo-3,4-dihydroquinazolin-2-yl)ethylamino)pyrimidine-5-carbonitrile]
[1]
  IC50: 2 nM
[2]; [4]
  EC50: 1 to 10 nM
[2]; [5]
  EC50: 1 nM
[3]; [6]
  half-life at 2 μM: > 10 h
[3]; [7]
  half-life at 2 μM: > 10 h

## COc1cncc(-n2c([C@H](C)Nc3nc(N)nc(N)c3C#N)nc3cccc(Cl)c3c2=O)c1 [Compound 14, (S)-2,4-diamino-6-(1-(5-chloro-3-(5-methoxypyridin-3-yl)-4-oxo-3,4-dihydroquinazolin-2-yl)ethylamino)pyrimidine-5-carbonitrile]
[1]
  IC50: 4 nM
[2]; [4]
  EC50: 1 to 10 nM
[2]; [5]
  EC50: 3 nM
[3]; [6]
  half-life at 2 μM: 6 to 10 h
[3]; [7]
  half-life at 2 μM: 8 h

## Cc1ncccc1-n1c([C@H](C)Nc2nc(N)nc(N)c2C#N)nc2cccc(Cl)c2c1=O (atropisomer, axis not shown) [Compound 39, (S)-2,4-diamino-6-(1-(5-chloro-3-(2-methylpyridin-3-yl)-4-oxo-3,4-dihydroquinazolin-2-yl)ethylamino)pyrimidine-5-carbonitrile]
[1]
  IC50: 1 nM
[2]; class symbol, human whole blood, basophils activated with anti-FcεRI mAb or fMLP, percent CD63 positive cells
  EC50: 1 to 10 nM
[2]; human whole blood, basophils activated with anti-FcεRI mAb or fMLP, percent CD63 positive cells, geometric mean
  EC50: 2 nM
[3]; [6]
  half-life at 2 μM: 3 to 6 h
[3]; [7]
  half-life at 2 μM: 3 h

## C[C@H](Nc1nc(N)nc(N)c1C#N)c1nc2cccc(C(F)(F)F)c2c(=O)n1-c1cccnc1 [Compound 9, (S)-2,4-diamino-6-(1-(4-oxo-3-(pyridin-3-yl)-5-(trifluoromethyl)-3,4-dihydroquinazolin-2-yl)ethylamino)pyrimidine-5-carbonitrile]
[1]
  IC50: 2 nM
[2]; [4]
  EC50: 1 to 10 nM
[2]; [5]
  EC50: 3 nM
[3]; [6]
  half-life at 2 μM: > 10 h
[3]; [7]
  half-life at 2 μM: > 10 h

## N#Cc1c(N)nc(N)nc1N[C@H](c1nc2c(Cl)ccc(Cl)c2c(=O)n1-c1cccnc1)C1CC1 [Compound 28, (S)-2,4-diamino-6-(cyclopropyl(5,8-dichloro-4-oxo-3-(pyridin-3-yl)-3,4-dihydroquinazolin-2-yl)methylamino)pyrimidine-5-carbonitrile]
[1]
  IC50: 0.6 nM
[2]; [4]
  EC50: 1 to 10 nM
[2]; [5]
  EC50: 4 nM
[3]; [6]
  half-life at 2 μM: 6 to 10 h
[3]; [7]
  half-life at 2 μM: 9 h

## C[C@H](Nc1nc(N)nc(N)c1C#N)c1nc2c(F)ccc(Cl)c2c(=O)n1-c1cccnc1 [Compound 24, (S)-2,4-diamino-6-(1-(5-chloro-8-fluoro-4-oxo-3-(pyridin-3-yl)-3,4-dihydroquinazolin-2-yl)ethylamino)pyrimidine-5-carbonitrile]
[1]
  IC50: 0.4 nM
[2]; [4]
  EC50: < 1 nM
[2]; [5]
  EC50: 0.3 nM
[3]; [6]
  half-life at 2 μM: > 10 h
[3]; [7]
  half-life at 2 μM: > 10 h

## Cc1ncc(F)cc1-n1c([C@H](C)Nc2nc(N)nc(N)c2C#N)nc2cccc(Cl)c2c1=O (atropisomer, axis not shown) [Compound 45, (S)-2,4-diamino-6-(1-(5-chloro-3-(5-fluoro-2-methylpyridin-3-yl)-4-oxo-3,4-dihydroquinazolin-2-yl)ethylamino)pyrimidine-5-carbonitrile]
[1]
  IC50: 6 nM
[2]; [4]
  EC50: 1 to 10 nM
[2]; [5]
  EC50: 7 nM
[3]; [6]
  half-life at 2 μM: 3 to 6 h
[3]; [7]
  half-life at 2 μM: 4 h
